# Patent US20230399312A1, “SUBSTITUTED PYRIMIDINES AND METHODS OF USE” (THERAVANCE BIOPHARMA R&D IP, LLC, priority 2020, published 2023)
# Experiments:
# [1] = tested on: TGF-β-stimulated SMAD3 phosphorylation in BEAS-2B cells; test: Cellular ALK5 potency assay, inhibition of TGF-β stimulated pSMAD3 formation in BEAS-2B cells; format: cell-based; settings: Homo sapiens, pSMAD3, TGF-β 10 ng/mL, read-out: BEAS2B pIC50 (converted)
# Procedure, shortened: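 Reported as pIC50, potency reflects dose-dependent loss of AlphaLISA pSMAD3 signal versus TGF-β-stimulated, compound-free BEAS-2B cells. Compound was applied for 1 h in BSA-containing HBSS buffer before a 30-min challenge with TGF-β at 10 ng/mL final.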
# [2] = biological target: T1, recombinant human ALK5 (TGF-βR1) protein (Homo sapiens, UniProt P36897); test: Biochemical ALK5 (TGF-βR1) assay to measure pKi (LANCE Ultra ULight kinase assay); settings: apparent pKi, converted from pIC50 by Cheng-Prusoff
# T1 construct: purchased Life Technologies PR9075A
# T1 sequence (P36897 34-503): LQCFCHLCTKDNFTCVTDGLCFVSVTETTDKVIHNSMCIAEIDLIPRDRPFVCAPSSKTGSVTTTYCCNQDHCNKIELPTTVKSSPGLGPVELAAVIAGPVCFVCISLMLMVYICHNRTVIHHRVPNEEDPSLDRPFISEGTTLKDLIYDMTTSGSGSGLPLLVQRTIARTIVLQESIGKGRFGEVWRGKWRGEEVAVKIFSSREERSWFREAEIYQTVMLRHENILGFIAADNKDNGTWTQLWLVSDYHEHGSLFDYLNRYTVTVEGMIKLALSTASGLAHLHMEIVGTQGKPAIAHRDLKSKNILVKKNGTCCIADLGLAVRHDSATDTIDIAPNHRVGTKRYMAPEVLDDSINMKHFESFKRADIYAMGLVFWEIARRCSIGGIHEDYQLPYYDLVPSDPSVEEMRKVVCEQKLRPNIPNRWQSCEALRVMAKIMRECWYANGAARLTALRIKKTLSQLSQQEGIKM
# Procedure, shortened: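 Dose-response series of each compound were preincubated with the kinase for 60 minutes at room temperature. Phosphorylation proceeded for 60 minutes at 37 °C after ATP addition, was quenched with EDTA, and was detected with a europium anti-phospho-Thr1342 antibody by TR-FRET; pKi was calculated from pIC50.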
smiles,measurement,setting,value
"Cc1cccc(-c2nccc(Nc3ccnc(Nc4ccc(C(=O)O[C@H]5CCN(C)C5)s4)n3)n2)n1 [Compound 507, [(3S)-1-methylpyrrolidin-3-yl] 5-[[4-[[2-(6-methyl-2-pyridyl)pyrimidin-4-yl]amino]pyrimidin-2-yl]amino]thiophene-2-carboxylate]",IC50,[1],25.1 to 158 nM
same,Ki,[2],0.0398 to 0.316 nM
"Cc1cccc(-c2nccc(Nc3ccnc(Nc4nc(CN5CCC[C@@H](C(=O)O[C@H]6CCN(C)C6)C5)cs4)n3)n2)n1 [Compound 508, (S)-1-methylpyrrolidin-3-yl (R)-1-((2-((4-((2-(6-methylpyridin-2-yl)pyrimidin-4-yl)amino)pyrimidin-2-yl)amino)thiazol-4-yl)methyl)piperidine-3-carboxylate]",IC50,[1],25.1 to 158 nM
same,Ki,[2],0.398 to 3.16 nM
"Cc1cccc(-c2nccc(Nc3ccnc(Nc4cccc(NC(=O)N5CCN(C)CC5)c4)n3)n2)n1 [Compound 509, 4-methyl-N-[3-[[4-[[2-(6-methyl-2-pyridyl)pyrimidin-4-yl]amino]pyrimidin-2-yl]amino]phenyl]piperazine-1-carboxamide]",IC50,[1],25.1 to 158 nM
same,Ki,[2],0.0398 to 0.316 nM
"Cc1cccc(-c2nccc(Nc3ccnc(Nc4nc(C(=O)N5CCNCC5)cs4)n3)n2)n1 [Compound 510, [2-[[4-[[2-(6-methyl-2-pyridyl)pyrimidin-4-yl]amino]pyrimidin-2-yl]amino]thiazol-4-yl]-piperazin-1-yl-methanone]",IC50,[1],25.1 to 158 nM
same,Ki,[2],0.0398 to 0.316 nM
"COc1cc(Nc2nccc(Nc3ccnc(-c4cccc(C)n4)n3)n2)ccc1NC(=O)C1CCNCC1 [Compound 511, N-[2-methoxy-4-[[4-[[2-(6-methyl-2-pyridyl)pyrimidin-4-yl]amino]pyrimidin-2-yl]amino]phenyl]piperidine-4-carboxamide]",IC50,[1],25.1 to 158 nM
same,Ki,[2],0.398 to 3.16 nM
"Cc1cccc(-c2nccc(Nc3ccnc(Nc4ccc5[nH]nnc5c4)n3)n2)n1 [Compound 512, N2-(1H-benzotriazol-5-yl)-N4-[2-(6-methyl-2-pyridyl)pyrimidin-4-yl]pyrimidine-2,4-diamine]",IC50,[1],25.1 to 158 nM
same,Ki,[2],0.398 to 3.16 nM
"Cc1cccc(-c2nccc(Nc3ccnc(Nc4ccc(COCCO)cc4)n3)n2)n1 [Compound 513, 2-[[4-[[4-[[2-(6-methyl-2-pyridyl)pyrimidin-4-yl]amino]pyrimidin-2-yl]amino]phenyl]methoxy] ethanol]",IC50,[1],25.1 to 158 nM
same,Ki,[2],0.398 to 3.16 nM
"Cc1cccc(-c2nccc(Nc3ccnc(Nc4ccc(N)c(C)c4)n3)n2)n1 [Compound 514, N2-(4-amino-3-methyl-phenyl)-N4-[2-(6-methyl-2-pyridyl)pyrimidin-4-yl]pyrimidine-2,4-diamine]",IC50,[1],≤ 20 nM
same,Ki,[2],0.398 to 3.16 nM
"Cc1cccc(-c2nccc(Nc3ccnc(Nc4ccc(N5CCNCC5)c(C)c4)n3)n2)n1 [Compound 515, N2-(3-methyl-4-piperazin-1-yl-phenyl)-N4-[2-(6-methyl-2-pyridyl)pyrimidin-4-yl]pyrimidine-2,4-diamine]",IC50,[1],25.1 to 158 nM
same,Ki,[2],0.0398 to 0.316 nM
"COC(=O)C1CCCN(Cc2ccc(Nc3nccc(Nc4ccnc(-c5cccc(C)n5)n4)n3)cc2)C1 (stereo not drawn) [Compound 516, methyl 1-[[4-[[4-[[2-(6-methyl-2-pyridyl)pyrimidin-4-yl]amino]pyrimidin-2-yl]amino]phenyl]methyl] piperidine-3-carboxylate]",IC50,[1],25.1 to 158 nM
same,Ki,[2],0.0398 to 0.316 nM
"COC(=O)CCc1ccc(Nc2nccc(Nc3ccnc(-c4cccc(C)n4)n3)n2)cc1 [Compound 517, methyl 3-[4-[[4-[[2-(6-methyl-2-pyridyl)pyrimidin-4-yl]amino]pyrimidin-2-yl]amino]phenyl]propanoate]",IC50,[1],200 to 1260 nM
same,Ki,[2],0.398 to 3.16 nM
"Cc1cccc(-c2nccc(Nc3ccnc(Nc4ccc(CN5CCC(C(=O)OCC6CNC6)C5)cc4)n3)n2)n1 (stereo not drawn) [Compound 518, azetidin-3-ylmethyl 1-[[4-[[4-[[2-(6-methyl-2-pyridyl)pyrimidin-4-yl]amino]pyrimidin-2-yl]amino]phenyl]methyl] pyrrolidine-3-carboxylate]",IC50,[1],25.1 to 158 nM
same,Ki,[2],0.0398 to 0.316 nM
